Data published in ChEMBL document CHEMBL1201862, “PubChem BioAssay data set” (2004).
Calls of active or inactive are those of the source.

Experiments:
[1] = loss of viability in HepG2 cells – cell-based, CellTiter-Glo, cherry-picked, cytotoxicity control for Shn3 inhibitor project, dose response (AID 624134); assay type: functional
[2] = non-specific 3'UTR reporter inhibition in Clone20-Shn3RL – cell-based, Renilla luciferase, cherry-picked, counter-screen for Shn3 inhibitor project, dose response (AID 624133); assay type: functional
[3] = target: Dual specificity tyrosine-phosphorylation-regulated kinase 1A (Rattus norvegicus, UniProt Q63470); assay type: biochemical, Homo sapiens
[4] = reduction of Shn3 3'UTR-driven luciferase in osteoblasts – cell-based, Clone20 osteoblasts, firefly luciferase, cherry-picked, dose response (AID 624132); assay type: functional;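 further: firefly luciferase luminescence from reporter carrying the Shn3 3'UTR in osteoblasts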
[5] = target: Cyclin-dependent kinase 5/CDK5 activator 1 (Homo sapiens, UniProt Q00535); experiment: blockade of human CDK5 activity – biochemical, cherry-picked samples, set 2, dose response (AID 504545)
Cyclin-dependent kinase 5/CDK5 activator 1, sequence (Q00535 whole entry): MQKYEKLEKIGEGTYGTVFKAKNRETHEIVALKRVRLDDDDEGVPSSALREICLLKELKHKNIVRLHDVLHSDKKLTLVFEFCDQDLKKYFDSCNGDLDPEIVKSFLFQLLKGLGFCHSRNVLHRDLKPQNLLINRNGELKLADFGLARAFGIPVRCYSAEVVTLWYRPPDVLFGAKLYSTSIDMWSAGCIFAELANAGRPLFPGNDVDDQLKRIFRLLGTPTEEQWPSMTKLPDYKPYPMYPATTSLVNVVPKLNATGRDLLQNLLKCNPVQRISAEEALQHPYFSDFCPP
Cyclin-dependent kinase 5/CDK5 activator 1, sequence (Q15078 whole entry, further chain): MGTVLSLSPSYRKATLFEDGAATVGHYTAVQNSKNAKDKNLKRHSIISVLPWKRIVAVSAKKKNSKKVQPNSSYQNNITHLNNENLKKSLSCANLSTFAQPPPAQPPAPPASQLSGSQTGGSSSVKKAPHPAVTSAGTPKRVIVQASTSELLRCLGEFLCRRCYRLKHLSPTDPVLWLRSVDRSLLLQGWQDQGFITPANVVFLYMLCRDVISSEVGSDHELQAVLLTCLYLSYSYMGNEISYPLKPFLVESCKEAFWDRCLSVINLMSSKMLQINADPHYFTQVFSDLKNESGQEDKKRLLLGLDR

[6] = target: T1, Alkaline phosphatase, tissue-nonspecific isozyme (Homo sapiens, UniProt P05186); experiment: potency against alkaline phosphatase TNAP – biochemical, luminescent, dose response, SAR follow-up (AID 1056)
T1 sequence (P05186 whole entry): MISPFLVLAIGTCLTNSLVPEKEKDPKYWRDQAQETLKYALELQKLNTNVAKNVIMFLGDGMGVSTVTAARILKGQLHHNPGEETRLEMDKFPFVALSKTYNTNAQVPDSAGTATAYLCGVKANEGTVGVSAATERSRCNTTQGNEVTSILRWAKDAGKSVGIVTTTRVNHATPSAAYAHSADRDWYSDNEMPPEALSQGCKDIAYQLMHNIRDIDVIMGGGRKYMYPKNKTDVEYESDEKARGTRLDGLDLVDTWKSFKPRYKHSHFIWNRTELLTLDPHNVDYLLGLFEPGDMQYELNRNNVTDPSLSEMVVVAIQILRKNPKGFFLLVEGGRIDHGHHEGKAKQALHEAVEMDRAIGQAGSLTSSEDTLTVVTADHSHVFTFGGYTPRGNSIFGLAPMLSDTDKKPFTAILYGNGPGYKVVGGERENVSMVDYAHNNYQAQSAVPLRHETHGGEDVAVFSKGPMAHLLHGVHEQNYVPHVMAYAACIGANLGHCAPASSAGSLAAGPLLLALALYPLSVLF

[7] = target: Glyceraldehyde-3-phosphate dehydrogenase (Homo sapiens, UniProt P04406)
Glyceraldehyde-3-phosphate dehydrogenase, sequence (P04406 whole entry): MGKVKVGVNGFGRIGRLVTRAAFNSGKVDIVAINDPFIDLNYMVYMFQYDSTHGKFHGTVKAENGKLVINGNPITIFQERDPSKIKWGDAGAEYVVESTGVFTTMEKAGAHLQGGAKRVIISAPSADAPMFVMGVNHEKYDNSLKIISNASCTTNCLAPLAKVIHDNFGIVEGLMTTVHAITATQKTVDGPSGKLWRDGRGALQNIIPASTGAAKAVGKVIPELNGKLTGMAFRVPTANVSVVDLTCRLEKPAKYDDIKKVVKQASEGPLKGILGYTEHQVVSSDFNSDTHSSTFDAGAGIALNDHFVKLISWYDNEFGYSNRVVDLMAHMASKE

[8] = test system: Vero; experiment: cells; assay type: functional; details: Chlorocebus sabaeus
[9] = target: X-box-binding protein 1 (Homo sapiens, UniProt P17861); assay type: functional, Cricetulus griseus;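 further: confirmatory dose-response counter-screen serving a CHOP assay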
X-box-binding protein 1, sequence (P17861 whole entry): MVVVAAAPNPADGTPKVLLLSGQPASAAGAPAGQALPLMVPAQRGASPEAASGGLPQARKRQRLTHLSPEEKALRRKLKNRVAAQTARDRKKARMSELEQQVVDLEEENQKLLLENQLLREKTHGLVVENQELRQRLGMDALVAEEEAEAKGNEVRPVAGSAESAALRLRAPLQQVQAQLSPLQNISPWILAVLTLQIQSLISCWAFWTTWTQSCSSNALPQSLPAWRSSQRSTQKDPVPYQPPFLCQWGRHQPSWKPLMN

[10] = Luminescence Cell-Based Dose Retest to Confirm Inhibitors of Cancer Stem Cells. [Related pubchem assays (depositor defined):AID2717, AID2721]; assay type: functional; details: Homo sapiens
[11] = test system: INS1; experiment: INS-1E survival protection against cytokine death – cell-based, luminescence, retest, dose response (AID 449756); assay type: functional; details: Rattus norvegicus;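 further: cell death triggered by IL-1 beta plus TNF-alpha plus IFN-gamma mixture; protective hits raise ATP signal compared with cytokine alone wells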
[12] = target: T2, Hexokinase-1 (Homo sapiens, UniProt P19367); experiment: HK1 enzyme activation by HKDC1 hits – biochemical, selectivity assay for HKDC1 activator project, dose response (AID 504762); assay type: functional
T2 sequence (P19367 whole entry): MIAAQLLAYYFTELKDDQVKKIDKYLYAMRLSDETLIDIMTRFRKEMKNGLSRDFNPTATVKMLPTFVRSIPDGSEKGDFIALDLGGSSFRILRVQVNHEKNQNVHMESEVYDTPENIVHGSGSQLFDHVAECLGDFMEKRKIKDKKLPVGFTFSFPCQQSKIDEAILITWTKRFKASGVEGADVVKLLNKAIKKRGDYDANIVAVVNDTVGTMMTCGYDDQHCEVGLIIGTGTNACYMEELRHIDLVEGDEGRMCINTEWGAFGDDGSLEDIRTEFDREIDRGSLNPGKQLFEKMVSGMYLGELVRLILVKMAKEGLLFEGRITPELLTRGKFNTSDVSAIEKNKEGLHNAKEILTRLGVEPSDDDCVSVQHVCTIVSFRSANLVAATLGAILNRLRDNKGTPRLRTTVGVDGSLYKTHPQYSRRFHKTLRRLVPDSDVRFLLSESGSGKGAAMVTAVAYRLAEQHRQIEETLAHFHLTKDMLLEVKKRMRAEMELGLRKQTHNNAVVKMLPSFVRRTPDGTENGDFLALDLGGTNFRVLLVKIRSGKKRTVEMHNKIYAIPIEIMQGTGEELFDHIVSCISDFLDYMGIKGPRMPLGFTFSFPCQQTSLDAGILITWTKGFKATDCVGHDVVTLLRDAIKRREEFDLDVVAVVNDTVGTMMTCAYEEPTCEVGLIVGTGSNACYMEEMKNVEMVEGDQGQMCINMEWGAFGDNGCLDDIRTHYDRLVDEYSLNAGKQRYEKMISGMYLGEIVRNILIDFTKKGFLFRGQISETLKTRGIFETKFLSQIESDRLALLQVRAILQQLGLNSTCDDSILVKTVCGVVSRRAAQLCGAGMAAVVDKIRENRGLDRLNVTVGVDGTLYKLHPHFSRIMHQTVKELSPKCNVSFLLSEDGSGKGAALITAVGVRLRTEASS

[13] = target: T3, Hexokinase HKDC1 (Homo sapiens, UniProt Q2TB90); experiment: activation of HKDC1 glucose phosphorylation – biochemical, W721R variant, dose response (AID 504730); assay type: functional
T3 sequence (Q2TB90 whole entry): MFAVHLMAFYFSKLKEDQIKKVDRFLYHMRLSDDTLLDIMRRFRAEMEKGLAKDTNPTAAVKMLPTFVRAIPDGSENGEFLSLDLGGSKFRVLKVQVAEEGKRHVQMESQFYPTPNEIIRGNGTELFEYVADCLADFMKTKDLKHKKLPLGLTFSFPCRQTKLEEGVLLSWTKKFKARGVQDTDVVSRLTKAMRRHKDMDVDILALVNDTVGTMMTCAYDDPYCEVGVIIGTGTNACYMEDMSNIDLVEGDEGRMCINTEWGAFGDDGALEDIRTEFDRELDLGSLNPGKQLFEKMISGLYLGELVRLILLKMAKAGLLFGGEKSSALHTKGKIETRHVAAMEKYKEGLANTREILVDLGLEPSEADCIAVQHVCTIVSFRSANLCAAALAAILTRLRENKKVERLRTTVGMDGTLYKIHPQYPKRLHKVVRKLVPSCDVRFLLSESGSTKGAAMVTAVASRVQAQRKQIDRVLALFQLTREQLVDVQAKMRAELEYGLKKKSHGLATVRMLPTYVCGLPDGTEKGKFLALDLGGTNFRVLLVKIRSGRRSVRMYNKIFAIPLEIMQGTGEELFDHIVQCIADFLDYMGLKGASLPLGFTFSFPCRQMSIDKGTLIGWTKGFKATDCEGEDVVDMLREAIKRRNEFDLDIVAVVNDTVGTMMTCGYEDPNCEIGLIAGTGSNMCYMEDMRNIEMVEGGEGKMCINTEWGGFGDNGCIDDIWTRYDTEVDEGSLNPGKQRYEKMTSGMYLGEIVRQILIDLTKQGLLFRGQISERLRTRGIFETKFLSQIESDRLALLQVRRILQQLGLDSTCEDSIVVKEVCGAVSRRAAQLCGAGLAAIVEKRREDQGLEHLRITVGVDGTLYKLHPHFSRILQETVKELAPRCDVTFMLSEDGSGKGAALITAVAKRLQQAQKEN

[14] = THP-1 cell cytotoxicity, dose response, cytotoxicity control for non-replicating M. tuberculosis project (AID 489025); assay type: functional
[15] = HepG2 cell cytotoxicity, dose response, cytotoxicity control for non-replicating M. tuberculosis project (AID 489018); assay type: functional; details: Mycobacterium tuberculosis
[16] = cells; assay type: functional
[17] = luciferase reporter signal suppression in cells – H4 neuroglioma cells, luminescence, dose response (AID 1990); assay type: functional, cell-based
[18] = microbe, parasite or virus in culture; assay type: functional; details: Mycobacterium tuberculosis
[19] = alpha-synuclein stem-loop luciferase translation blockers – H4 neuroglioma cells, luminescence, confirmation (AID 1988); assay type: functional, cell-based
[20] = Luminescence Cell-Based Dose Response HTS to Identify Inhibitors of 5'UTR Stem-Loop Driven Prion Protein mRNA Translation in H4 Neuroglioblastoma Cells. [Related pubchem assays: 1827 (Project Summary), 1813 (Primary HTS)]; assay type: functional
[21] = Vero E6 cell cytotoxicity, dose response, cytotoxicity control for non-replicating M. tuberculosis project, secondary assay (AID 492998); assay type: functional, VeroE6; details: Vero C1008
[22] = DRD fibroblast viability loss – cell-based, non-viral oncogenic, luminescence, dose response (AID 1934); assay type: functional; details: Homo sapiens
[23] = test system: BJ; experiment: BJ-TERT fibroblast viability loss – cell-based, RAS-independent, luminescence, dose response (AID 1933); assay type: functional; details: Homo sapiens
[24] = viability of HCT116 lacking mutant beta-catenin – cell-based, human colon tumor, dose response (AID 1045); assay type: functional;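 further: HCT116 colon tumor cells with beta catenin knocked out; cells exposed to compound for 60 hours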
[25] = test system: BJ; experiment: cells; assay type: functional, cell-based; details: Homo sapiens
[26] = test system: BJ; experiment: BJ-TERT-LT-ST fibroblast viability loss – cell-based, RAS-independent, luminescence, dose response (AID 1935); assay type: functional; details: Homo sapiens;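 further: BJ fibroblasts immortalized with TERT plus LT and ST oncogenes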
[27] = target: Cytochrome P450 2C9 (Homo sapiens, UniProt P11712)
Cytochrome P450 2C9, sequence (P11712 whole entry): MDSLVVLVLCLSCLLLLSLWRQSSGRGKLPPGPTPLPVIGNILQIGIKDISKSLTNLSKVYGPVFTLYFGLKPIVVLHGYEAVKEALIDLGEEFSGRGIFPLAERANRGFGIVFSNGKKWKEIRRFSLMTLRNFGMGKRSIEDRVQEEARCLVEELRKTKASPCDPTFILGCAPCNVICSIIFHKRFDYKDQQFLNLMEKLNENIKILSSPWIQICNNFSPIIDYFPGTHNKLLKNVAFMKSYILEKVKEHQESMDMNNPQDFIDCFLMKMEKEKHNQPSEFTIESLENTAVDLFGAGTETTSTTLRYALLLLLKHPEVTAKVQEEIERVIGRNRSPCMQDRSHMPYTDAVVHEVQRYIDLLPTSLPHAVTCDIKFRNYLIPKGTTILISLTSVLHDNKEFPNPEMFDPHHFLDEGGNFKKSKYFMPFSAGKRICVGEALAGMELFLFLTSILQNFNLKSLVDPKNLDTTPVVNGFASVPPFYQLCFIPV

[28] = test system: HeLa; experiment: viability loss in HeLa cells – cell-based, 24 h, cherry-picked samples, cytotoxicity control, dose response (AID 504726); assay type: functional; details: Homo sapiens;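 further: potency for cytotoxicity as loss of luminescence signal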
[29] = target: T4, Hepatocyte nuclear factor 4-alpha (Homo sapiens, UniProt P41235); assay type: functional, cell-based;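 further: biochemical luminescence-based dose-response counterscreen measuring inhibition of HNF4 dimerization, run alongside a screen for blockers of ABHD5–perilipin-5 interaction; split luciferase complementation of HNF4 fusion proteins in cell lysate measuring dimerization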
T4 sequence (P41235 whole entry): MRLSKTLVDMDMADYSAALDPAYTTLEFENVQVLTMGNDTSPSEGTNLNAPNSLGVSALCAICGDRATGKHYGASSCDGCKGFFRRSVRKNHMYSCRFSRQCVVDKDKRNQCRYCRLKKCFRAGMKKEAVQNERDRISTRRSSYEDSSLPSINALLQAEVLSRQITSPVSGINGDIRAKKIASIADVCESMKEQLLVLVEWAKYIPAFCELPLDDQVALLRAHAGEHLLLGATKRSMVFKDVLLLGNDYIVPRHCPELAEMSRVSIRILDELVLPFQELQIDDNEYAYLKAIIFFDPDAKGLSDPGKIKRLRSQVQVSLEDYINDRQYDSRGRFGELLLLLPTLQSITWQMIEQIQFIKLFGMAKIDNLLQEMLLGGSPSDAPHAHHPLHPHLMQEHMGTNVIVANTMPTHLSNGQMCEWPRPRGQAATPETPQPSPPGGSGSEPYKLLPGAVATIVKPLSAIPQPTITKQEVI

[30] = reduced cellular PGC1a acetyl-lysine signal – cell-based, cherry-picked samples, dose response (AID 720514); assay type: functional;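 further: potency may reflect raised or lowered acetylation signal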
[31] = viability of PTEN-deleted HCT116 cells – cell-based, HCT116 PTEN knockout, dose response (AID 1047); assay type: functional;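 further: HCT116 colon tumor cells with PTEN knocked out; cells exposed to compound for 60 hours before readout; potency for loss of cell viability measured by luminescence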

## Cc1[nH]nc2c1-c1nc3ccccc3nc1C(C)(C)C2
[1]
  AC50: 24.4 µM (active)
[2]
  AC50: 9.03 µM (active)
[3]
  AC50: 2.38 µM (active)
[4]
  AC50: 4.2 µM (active)
[5]
  AC50: 14.7 µM (active)

## COc1cc(Cl)ccc1S(=O)(=O)Nc1ccc2ccccc2c1
[6]
  IC50: > 100 µM (inactive)
[7]
  IC50: > 100 µM (not active)

## COc1cc(OC)c(OC)cc1/C=N/Nc1[nH]cnc2c3ccccc3nc1-2
[8]
  CC50: > 25 µM (active)
[9]
  Absolute IC50 (XBP1): 10 µM

## FC(F)(F)c1nnc(-c2ccccc2)nc1Sc1ccc(Cl)cc1
[10]
  AC50: 4 µM (active)
[11]
  AC50: 9.75 µM (active)
[9]
  Absolute IC50 (XBP1): 10 µM
[1]
  AC50: 31.4 µM (active)
[2]
  AC50: 21 µM (active)
[4]
  AC50: 14.7 µM (active)

## Cc1cc(C2=NN=C(Nc3ccc(S(=O)(=O)N4CCOCC4)cc3)SC2)c(C)n1C
[12]
  EC50: 46 µM (inactive)
[13]
  EC50: 24.7 µM (inactive)

## O=C(O)c1cc(-c2ccc(Cl)cc2)n[nH]1
[6]
  IC50: 6.14 µM (active)
[7]
  IC50: > 100 µM (not active)

## Cc1nc(-c2ccc(C(F)(F)F)cc2)sc1C(=O)NN
[14]
  CC50: 20.7 µM (active)
[15]
  CC50: > 20 µM (active)
[16]
  IC50: 35.9 µM (active)

## CCCCCC(=O)N/N=C(\C)c1ccccn1
[17]
  EC50: 12.5 µM (active)
[14]
  CC50: 11.1 µM (active)
[15]
  CC50: > 20 µM (active)
[18]
  CC50: 21.4 µM (active)
[19]
  EC50: 5.13 µM (active)
[16]
  IC50: 10.3 µM (active)
[20]
  EC50: 7.26 µM (active)
[21]
  CC50: 13.3 µM (active)

## CCC(=O)Nc1cccc(C(=O)/C=C/c2ccccc2)c1
[22]
  EC50: 11.2 µM (active)
[23]
  EC50: 9.74 µM (inconclusive)
[24]
  EC50: 2.34 µM (active)
[25]
  EC50: 26 µM (active)
[26]
  EC50: 20.9 µM (inconclusive)
[27]
  AC50: inconclusive
[28]
  AC50: 23.6 µM (active)
[29]
  IC50: 2.86 µM (active)
[30]
  AC50: 14.2 µM (active)
[31]
  EC50: 2.4 µM (active)
